Measured values taken from US20200352912A1, “ANTIMICROBIAL COMPOSITIONS AND METHODS OF USING THE SAME” (The Board Of Supervisors Of Louisiana State University And …, priority 2018, published 2020).

Experiments:
E. coli = assay: spectrum of activity, bacterial growth; assay type: cell-based, Escherichia coli; settings: 50 μg/ml, 6 h
Experimental: Bacterial growth was monitored for 6 h in medium alone or supplemented with 50 μg/ml of L-161, 982. Data shown is representative of three independent experiments.
Strains and growth conditions. The methicillin-resistant S. aureus strain NRS383 used in all experiments was obtained from the Network on Antimicrobial Resistance in S. aureus (NARSA) data bank. NRS383 is positive for the toxic shock syndrome toxin (tst) and 6-toxin genes. SJ-MRSA 6 and SJ-SA5 are methicillin-resistant (MRSA) and methicillin-sensitive (MSSA) clinical S. aureus strains respectively isolated from a patient's catheter. Other bacterial species used in this study include Escherichia coli (ATCC 25922, clinical isolate), S. epidermidis (ATCC 12228), Klebsiella pneumonia (ATCC 43816), Enterococcus faecalis (ATCC 51299, clinical isolate), and Streptococcus mutans (UA159, 12). S. mutans strain was maintained in brain heart infusion (BHI) broth while the other bacterial species were maintained in Luria-Bertani broth. Frozen stocks were obtained at −80° C. and streaked onto agar plates at 37° C. prior to use. A single colony was transferred to 10 ml of culture broth and shaken at 37° C. overnight. On the following day, the overnight culture was diluted 1:100 in fresh growth medium and shaken at 37° C. for 3 h to obtain cells in mid-log growth phase. S. mutans cultures were grown without agitation in the presence of 5% CO2. […]

S. aureus [1] = assay: colony phenotype on agar plates; assay type: cell-based, Staphylococcus aureus
From the text: L-161, 982 inhibits activities associated with the electron transport chain including ATP production. In addition to the sulfonamide group, the chemical structure of L 161, 982 contains a urea group connected to two aryl groups (diarylurea) (FIG. 11). Urea derivatives are commonly used as herbicides, interfering with electron transport (17). […] SCVs typically lack a functional electron transport chain and cannot produce virulence factors such as hemolysins or the antioxidant pigment staphyloxanthin [reviewed in (19)]. […] These defects are all indicative of interruption of electron transport as carotenoid formation as well as toxin production is dependent on an active electron transport (18, 20, 21). During aerobic respiration, the force required for driving ATP synthesis requires a transmembrane electrical potential (membrane potential), which is generated by the electron transport chain.

S. aureus strain 43300 [2] = assay: staphyloxanthin assay; assay type: cell-based, Staphylococcus aureus
Experimental: Pigment (staphyloxanthin) levels were measured from cultures grown in Mueller-Hinton broth+/−L-161, 982 at 37° C. for 24 h. A) Macroscopic analysis of S. aureus pigment production. B) Pigment was extracted in methanol and optical density measured at 450 nm. Data shown are representative of two independent experiments. *** p<0.001 control vs. drug-treated.
(§1) Strains and growth conditions. The methicillin-resistant S. aureus strain NRS383 was obtained from the Network on Antimicrobial Resistance in S. aureus (NARSA) data bank. As NRS383 has little or no hemolytic activity or pigmentation, S. aureus strain 43300 (ATCC) was used for the hemolysis and staphyloxanthin assays. Frozen stocks were obtained at −80° C. and streaked onto trypticase soy agar (TSA) plates at 37° C. prior to use. A single colony was transferred to 10 ml of trypticase soy broth (TSB) and shaken at 37° C. overnight. On the following day, the overnight culture was diluted 1:100 in fresh growth medium and shaken at 37° C. for 3 h to obtain cells in mid-log growth phase.
Staphyloxanthin Assay. S. aureus was diluted 100-fold in 50 ml of TSB containing 50 or 100 μg/ml of L-161,982 and cultured shaking at 37° C. for 48 h. Control cultures were grown in broth alone. […] Cells from each culture were counted and normalized. […] Optical densities of supernatants were measured at 465 nm using a spectrophotometer.

S. aureus strain 43300 [3] = assay: hemolysis assay; assay type: cell-based, Staphylococcus aureus
Experimental: (A) Macroscopic analysis of S. aureus hemolytic activity. S. aureus was spotted on Mueller-Hinton agar containing sheep blood and/or various concentrations of L-161, 982, and incubated at 37 C for 24 h (0, 25 50, 100) or 72 h (200). (B) Width of the zone of RBC clearance was measured at 4 points around each S. aureus area of growth in 2 independent replicates. * p<0.05 control vs. drug-treated.
as §1, with “On the following day, the overnight culture was diluted 1:100 in fresh growth medium and shaken at 37° C. for 3 h to obtain cells in mid-log growth phase.” left out
Hemolysis Assay. Hemolytic activity was measured using Mueller-Hinton agar plates containing 5% defribinated sheep blood (Thermo Fisher)+/−L-161, 982 at a final concentration of 50 μg/ml. […] Plates were placed on a light box and digitally photographed and images were analyzed using Photoshop CS3. […] The width of each zone was measured at 0, 90, 180, 270° around growth spots (2-3 spots/group) using the ruler tool. […]

S. aureus [4] = assay: ATP detection assay (BacTiter-Glo); assay type: cell-based, Staphylococcus aureus; settings: 12.5-200 μg/ml, 5 h
Experimental: S. aureus was incubated with various concentrations of L-161,982 in a 96-well plate in triplicate for 5 h at 37° C. ATP production was measured in samples normalized to viable cell number using the BacTiter-Glo™ Assay (Promega) and measuring luminescence. Background luminescence from media alone samples was subtracted from experimental samples. Results represent the means+/−standard deviation. Data shown are representative of two independent experiments. ** p<0.01; *** p<0.001 control vs drug-treated.
ATP detection assay. S. aureus was diluted 100-fold in 10 ml of fresh Mueller Hinton II broth which was used as the inoculum. The inoculum was incubated with various concentrations of L-161,982 (12.5-200 μg/ml) in a 96-well plate in triplicate for 5 h at 37° C. After incubation, cells L-161,982 were stained with LIVE/DEAD Baclight bacterial viability stain (Invitrogen) and viable cells were counted. Samples were normalized to viable cell number before transferring to an opaque-walled 96-well plate. An equal volume of BacTiter-Glo™ Reagent (Promega) was added. The plate was allowed to develop for 5 min at room temperature. Luminescence was quantified using a BioTek Synergy 2 plate reader. A media alone control was used to detect background luminescence.

SMILES: CCCCc1nn(-c2ccccc2C(F)(F)F)c(=O)n1Cc1ccc(-c2ccccc2S(=O)(=O)NC(=O)c2sccc2C)cc1 [L-161, 982, N-[[4′-[[3-Butyl-1,5-dihydro-5-oxo-1-[2-(trifluoromethyl)phenyl]-4H-1,2,4-triazol-4-yl]methyl][1,1′-biphenyl]-2-yl]sulfonyl]-3-methyl-2-thiophenecarboxamide]
- growth inhibitory activity (E. coli): No inhibitory effects
- colony phenotype (S. aureus [1]): grew as small colonies
- pigmentation (staphyloxanthin) (S. aureus strain 43300 [2]): loss of yellow pigmentation
- hemolytic activity, zones of clearance on blood agar (S. aureus strain 43300 [3]): significantly reduced zones of clearance
- ATP production (S. aureus [4]): significantly inhibited ATP production
